Legend:
[1] = test system: SARS-CoV-2 S pseudotype virus N501Y mutant strain; type: cell-based
[2] = test system: SARS-CoV-2 S pseudotype virus B.1.429 mutant strain (ε strain); type: cell-based; conditions: ε mutant strain (B.1.429); 100 μM; ACE2-expressing HEK293T cells; GFP fluorescence; FIG. 1

COCCOCCOC(=O)N[C@@H](CC(C)C)C(=O)N[C@@H](Cc1ccccc1)C(=O)C(=O)NC1CC1 [SNJ-1945]
entry inhibition of pseudotype virus into cells [1]: inhibits entry | entry inhibition of pseudotype virus into cells [2]: inhibits entry

Reference: patent publication US20230390235A1, “THERAPEUTIC AGENT FOR COVID-19” (priority 2020, published 2023)
